Experimental data as given in patent publication US20260317319A1, “NOVEL ERGOLINES AND METHODS OF TREATING MOOD DISORDERS” (Gilgamesh Pharma Inc., priority 2023, published 2026).
Read-outs that look alike come from different tables or passages of the source.

How the values were obtained:
5-HT1A receptor = biological target: T1, 5-HT1A receptor (Homo sapiens, UniProt P08908); experiment: cell-based; conditions: agonist, Ca2+ flux; for Emax: CHO, CHO cells with Gα15, max dose, read-out: 5-HT1A % Act @ Max Dose; for EC50: CHO cells with Gα15
T1 construct: expressed in transfected cells; host or cells: CHO cells, stably transfected
T1 sequence (P08908 1-422): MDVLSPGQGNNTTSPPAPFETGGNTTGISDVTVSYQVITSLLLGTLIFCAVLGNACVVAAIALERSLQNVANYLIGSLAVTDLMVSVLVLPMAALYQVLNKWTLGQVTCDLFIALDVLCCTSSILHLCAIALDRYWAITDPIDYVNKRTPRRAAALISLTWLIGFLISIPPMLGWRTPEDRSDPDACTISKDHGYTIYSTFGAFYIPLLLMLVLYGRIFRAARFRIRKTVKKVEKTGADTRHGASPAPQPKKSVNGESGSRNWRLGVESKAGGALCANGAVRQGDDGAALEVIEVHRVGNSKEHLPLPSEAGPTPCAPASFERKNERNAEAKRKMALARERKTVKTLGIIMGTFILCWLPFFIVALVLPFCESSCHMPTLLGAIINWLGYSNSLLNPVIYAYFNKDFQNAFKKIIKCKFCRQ
Procedure, shortened: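 Using HEK293 lines for the 5-HT2 subtypes and Gα15-coupled CHO cells for 5-HT1A, compounds were tested as agonists. Fluorescent Ca2+ signal followed dye loading (Fluo-4 Direct, 2.5 mM final probenecid, 50 min, 37 °C).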

5-HT2A receptor [1] = biological target: T2, 5-HT2A receptor (Homo sapiens, UniProt P28223); experiment: cell-based; type: cell-based; design: expressed in transfected cells; host or cells: HEK293, stably transfected; conditions: Ca2+ flux; for Emax: HEK293, agonist, HEK293, max dose, read-out: 5-HT2A % Act @ Max Dose; for EC50: agonist, HEK293
Procedure, shortened: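 Agonism measured as calcium flux on FLIPR Tetra. Receptor lines: HEK293 for 5-HT2A and 5-HT2B, CHO with Gα15 for 5-HT1A; dye loading with Fluo-4 Direct and probenecid (2.5 mM final) ran 50 min at 37 °C before compound addition and signal reading.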

5-HT2B receptor [2] = biological target: T3, 5-HT2B receptor (Homo sapiens, UniProt P41595); experiment: 5-HT2B receptor radioligand binding ([3H]LSD); conditions: read-out: 5-HT2B Receptor Ki
T3 construct: expressed in transfected cells; host or cells: HEK293, stably transfected

in vitro [3] = type: in vitro ADME, human; conditions: HLM 0.50 mg/mL, NADPH 1 mM, 1 μM compound, pH 7.4, 37° C., 60 min; for microsomal CLint / half-life: human, microsomes; for microsomal CLint: read-out: Intrinsic clearance (Clint); for half-life: read-out: half-life (t1/2)
5-HT2A receptor [4] = biological target: T2, 5-HT2A receptor; experiment: biochemical; type: binding; design: expressed in transfected cells; host or cells: HEK293, stably transfected; conditions: [3H]ketanserin 1 nM; HEK293 stable cell line; 1 h, 25 °C
Procedure, shortened: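 Test compounds competed with [^3H]ketanserin for receptor binding, and affinity was derived from the radioligand displacement.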

in vitro [5] = type: in vitro ADME, rat; conditions: RLM (male Sprague-Dawley) 0.50 mg/mL, NADPH 1 mM, 1 μM compound, pH 7.4, 37° C., 60 min; for microsomal CLint / half-life: rat, microsomes; for microsomal CLint: read-out: Intrinsic clearance (Clint); for half-life: read-out: half-life (t1/2)
Description: RLM Stability Pooled RLM from male Sprague-Dawley rats (Xenotech R1000) were used.

5-HT2C receptor = biological target: T4, 5-HT2C receptor (Homo sapiens, UniProt P28335); experiment: Ca2+ flux functional assay at 5-HT2C (WuXi 5-HT2C protocol); type: cell-based; design: expressed in transfected cells; conditions: for Emax: agonist, tested using WuXi 5-HT2C protocol, max dose, read-out: 5-HT2C % Act @ Max Dose (* WuXi protocol)
T4 sequence (P28335 33-458): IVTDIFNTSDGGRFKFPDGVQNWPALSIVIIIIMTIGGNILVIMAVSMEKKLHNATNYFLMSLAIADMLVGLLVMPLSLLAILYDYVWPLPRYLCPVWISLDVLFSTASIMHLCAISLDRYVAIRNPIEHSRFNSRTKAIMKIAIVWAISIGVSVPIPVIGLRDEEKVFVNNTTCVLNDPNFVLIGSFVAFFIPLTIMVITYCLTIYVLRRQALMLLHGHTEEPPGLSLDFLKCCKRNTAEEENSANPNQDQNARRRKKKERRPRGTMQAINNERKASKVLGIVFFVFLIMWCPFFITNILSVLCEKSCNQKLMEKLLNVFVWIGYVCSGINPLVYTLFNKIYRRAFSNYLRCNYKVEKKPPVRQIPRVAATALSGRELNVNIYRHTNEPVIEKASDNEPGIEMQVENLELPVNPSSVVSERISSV
Method: Disclosed compounds were tested for agonist activity at several serotonin receptor subtypes (5-HT2A, […], 5-HT2C, and 5-HT1A) using Ca^2+ flux functional assays and the 5-HT1B receptor using a cAMP accumulation assay, with the results summarized in Table 4. […] Potent agonist activity was also observed at the other serotonin receptors tested, although the selectivity profile among the receptors varied across compounds. […] However, at the same time, the N-propyl compounds were more efficacious agonists at 5-HT2B than the corresponding N-methyl compounds. The selectivity of disclosed compounds for 5-HT2A over 5-HT2C and 5-HT1A was less predictable and varied widely across compounds. […] An azetidinyl amide substituent tended to increase potency at 5-HT1A relative to 5-HT2A.
(§1) Functional Assays at 5-HT2A, 5-HT2B, and 5-HT1A. Agonist activity at 5-HT2A, 5-HT2B, 5HT2C and 5-HT1A receptors was determined using a FLIPR Ca^2+ flux assay at WuXi AppTec (Hong Kong) Limited according to their standard protocols. Briefly, stably transfected cells expressing the receptor of interest and Gα15 in the case of 5-HT1A (HEK293 for 5-HT2A and 5-HT2B; CHO cells for 5-HT1A) were grown and plated in a 384 well plate and incubated at 37° C. and 5% CO2 overnight. A solution of 250 mM probenecid in 1 mL FLIPR assay buffer was prepared fresh. This was combined with a fluorescent dye (Fluo-4 Direct™) to make a final assay concentration of 2.5 mM. Compounds were diluted 1:3.16 for 10 points and 750 nL was added to a 384 well compound plate using ECHO along with 30 μL assay buffer. The fluorescent dye was then added to the assay plate along with assay buffer to a final volume of 40 μL. The cell plate was incubated for 50 min at 37° C. and 5% CO2 and placed into the FLIPR Tetra along with the compound plate. 10 μL of references and compounds were then transferred from the compound plate into the cell plate and the fluorescent signal was read.

5-HT2B receptor [6] = biological target: T3, 5-HT2B receptor; experiment: cell-based; type: cell-based; conditions: Ca2+ flux; for Emax: HEK293, agonist, HEK293, max dose, read-out: 5-HT2B % Act @ Max Dose; for EC50: agonist, HEK293
Procedure, shortened: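 FLIPR Tetra fluorescence read-out of calcium flux after compound addition. Receptor-expressing stable lines were used (HEK293 for 2A/2B; CHO with Gα15 for 1A), dye-loaded with Fluo-4 Direct and 2.5 mM final probenecid, 50 min at 37 °C.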

in vitro [7] = type: in vitro ADME, mouse; conditions: MLM (male CD-1) 0.50 mg/mL, NADPH 1 mM, 1 μM compound, pH 7.4, 37° C., 60 min; for microsomal CLint / half-life: mouse, microsomes; for microsomal CLint: read-out: Intrinsic clearance (Clint); for half-life: read-out: half-life (t1/2)
Description: MLM Stability Pooled MLM from male CD-1 mice (BIOIVT M00501) were used.

[8] = biological target: T5, Alpha1A adrenergic receptor (Homo sapiens, UniProt P35348); experiment: Ca2+ flux functional assay at Alpha1A; type: cell-based; conditions: agonist, Ca2+ flux, max dose; read-out: Alpha 1A % Act @ Max Dose
T5 construct: expressed in transfected cells
T5 sequence (P35348 1-466): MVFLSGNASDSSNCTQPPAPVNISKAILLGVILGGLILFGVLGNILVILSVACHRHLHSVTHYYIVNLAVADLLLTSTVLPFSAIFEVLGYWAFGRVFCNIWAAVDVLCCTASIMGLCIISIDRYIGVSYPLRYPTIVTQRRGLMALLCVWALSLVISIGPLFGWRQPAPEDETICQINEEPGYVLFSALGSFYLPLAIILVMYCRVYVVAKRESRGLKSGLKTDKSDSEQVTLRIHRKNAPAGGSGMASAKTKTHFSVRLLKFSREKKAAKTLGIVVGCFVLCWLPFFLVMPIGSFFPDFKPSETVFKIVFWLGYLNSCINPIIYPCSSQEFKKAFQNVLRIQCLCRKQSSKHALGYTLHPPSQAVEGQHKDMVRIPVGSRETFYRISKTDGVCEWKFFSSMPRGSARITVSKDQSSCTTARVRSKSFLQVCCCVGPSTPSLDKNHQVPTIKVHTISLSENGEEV
Method: Disclosed compounds were tested for agonist activity at several adrenergic (Alpha1A and Alpha2A) and dopamine (D1 and D2) receptor subtypes using Ca^2+ flux functional assays, with the results summarized in Table 6. Selectivity for the 5-HT2A receptor over these other targets varied depending on the specific target and compound.
as §1, with “Adrenergic” for “5-HT2A, 5-HT2B,”, “Dopamine Receptors.” for “5-HT1A.”, “Alpha1A, Alpha2A, D1,” for “5-HT2A, 5-HT2B, 5HT2C”, “D2” for “5-HT1A”, “interest” for “interest and Gα15 in the case of 5-HT1A (HEK293 for 5-HT2A and 5-HT2B; CHO cells for 5-HT1A)”

5-HT1B receptor = biological target: T6, 5-HT1B receptor (Homo sapiens, UniProt P28222); experiment: cAMP accumulation functional assay at 5-HT1B; type: cell-based; conditions: agonist, cAMP accumulation, max dose; read-out: 5-HT1B % Act @ Max Dose
T6 construct: expressed in transfected cells
Procedure, shortened: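 Stably transfected human 5-HT1B cells were incubated 60 min at room temperature, after which detection reagent was applied for another 60 min at RT. The read-out was cAMP accumulation, used as a measure of agonist activity.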

T2 sequence (P28223 whole entry): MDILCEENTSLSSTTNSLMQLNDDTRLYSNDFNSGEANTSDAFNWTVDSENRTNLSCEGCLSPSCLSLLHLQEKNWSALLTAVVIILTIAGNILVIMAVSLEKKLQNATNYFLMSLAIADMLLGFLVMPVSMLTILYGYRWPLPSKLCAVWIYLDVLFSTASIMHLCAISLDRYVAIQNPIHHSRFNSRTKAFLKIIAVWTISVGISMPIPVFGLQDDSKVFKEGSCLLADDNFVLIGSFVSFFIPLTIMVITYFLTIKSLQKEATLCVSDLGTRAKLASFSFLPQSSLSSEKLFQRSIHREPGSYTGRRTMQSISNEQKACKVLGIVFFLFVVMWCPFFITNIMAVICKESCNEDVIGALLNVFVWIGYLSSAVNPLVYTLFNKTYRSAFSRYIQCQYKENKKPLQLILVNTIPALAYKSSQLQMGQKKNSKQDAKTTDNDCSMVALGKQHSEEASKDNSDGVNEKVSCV
T3 sequence (P41595 whole entry): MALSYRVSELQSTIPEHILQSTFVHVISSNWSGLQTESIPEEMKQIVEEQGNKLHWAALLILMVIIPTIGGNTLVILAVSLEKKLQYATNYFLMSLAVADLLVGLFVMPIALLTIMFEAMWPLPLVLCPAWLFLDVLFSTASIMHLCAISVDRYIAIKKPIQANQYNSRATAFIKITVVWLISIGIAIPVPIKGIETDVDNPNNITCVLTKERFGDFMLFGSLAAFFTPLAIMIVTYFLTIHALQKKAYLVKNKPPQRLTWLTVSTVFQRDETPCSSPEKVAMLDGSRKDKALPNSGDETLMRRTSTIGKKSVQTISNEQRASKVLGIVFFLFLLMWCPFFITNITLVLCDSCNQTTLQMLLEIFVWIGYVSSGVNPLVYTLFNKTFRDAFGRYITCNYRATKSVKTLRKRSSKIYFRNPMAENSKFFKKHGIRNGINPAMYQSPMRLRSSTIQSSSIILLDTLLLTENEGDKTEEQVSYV
T6 sequence (P28222 whole entry): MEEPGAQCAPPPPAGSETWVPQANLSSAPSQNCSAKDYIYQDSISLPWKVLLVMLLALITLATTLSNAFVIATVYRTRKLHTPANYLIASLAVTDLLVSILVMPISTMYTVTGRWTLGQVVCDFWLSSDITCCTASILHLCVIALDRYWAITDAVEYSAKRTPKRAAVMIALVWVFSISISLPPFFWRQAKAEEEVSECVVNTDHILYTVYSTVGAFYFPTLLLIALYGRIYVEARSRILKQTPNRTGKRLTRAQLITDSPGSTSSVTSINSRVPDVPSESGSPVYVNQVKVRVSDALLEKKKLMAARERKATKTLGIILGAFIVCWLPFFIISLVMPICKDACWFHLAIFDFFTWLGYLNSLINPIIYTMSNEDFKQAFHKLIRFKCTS

CCN(C)C(=O)[C@@H]1C=C2c3cccc4[nH]cc(c34)C[C@H]2N(Cc2cccc(OC)c2)C1 [Compound 92, (6aR,9R)—N-ethyl-7-(3-methoxybenzyl)-N-methyl-4,6,6a,7,8,9-hexahydroindolo[4,3-fg]quinoline-9-carboxamide]
Emax (5-HT1A receptor): 21.6%
EC50 (5-HT1A receptor): > 100000 nM
Emax (5-HT2A receptor [1]): 53.8%
EC50 (5-HT2A receptor [1]): 793 nM
Ki (5-HT2B receptor [2]): 1950 nM
microsomal CLint (in vitro [3]): 140 µL/min/mg
half-life (in vitro [3]): 9.9 min
Ki (5-HT2A receptor [4]): 11.1 nM
microsomal CLint (in vitro [5]): 278 µL/min/mg
half-life (in vitro [5]): 5 min
EC50 (5-HT2C receptor): > 10000 nM
Emax (5-HT2C receptor): 12.5%
Emax (5-HT2B receptor [6]): 0.48%
EC50 (5-HT2B receptor [6]): > 10000 nM
microsomal CLint (in vitro [7]): 321 µL/min/mg
half-life (in vitro [7]): 4.3 min

CN(C)C(=O)[C@@H]1C=C2c3cccc4[nH]cc(c34)C[C@H]2N(Cc2ccccc2)C1 [Compound 102, (6aR,9R)-7-benzyl-N,N-dimethyl-4,6,6a,7,8,9-hexahydroindolo[4,3-fg]quinoline-9-carboxamide]
Emax (5-HT1A receptor): 90.1%
EC50 (5-HT1A receptor): 26200 nM
Emax (5-HT2A receptor [1]): 65.2%
EC50 (5-HT2A receptor [1]): 155 nM
Ki (5-HT2B receptor [2]): 170 nM
microsomal CLint (in vitro [3]): 16.9 µL/min/mg
half-life (in vitro [3]): 82 min
Ki (5-HT2A receptor [4]): 10.8 nM
microsomal CLint (in vitro [5]): 134 µL/min/mg
half-life (in vitro [5]): 10.3 min
EC50 (5-HT2C receptor): 685 nM
Emax (5-HT2C receptor): 76.6%
Emax (5-HT2B receptor [6]): 5.86%
EC50 (5-HT2B receptor [6]): > 10000 nM
microsomal CLint (in vitro [7]): 111 µL/min/mg
half-life (in vitro [7]): 12.5 min

CCN(CC)C(=O)[C@@H]1C=C2c3cccc4[nH]cc(c34)C[C@H]2N(CCC(F)(F)F)C1 [Compound 12, (6aR,9R)—N,N-diethyl-7-(3,3,3-trifluoropropyl)-4,6,6a,7,8,9-hexahydroindolo[4,3-fg]quinoline-9-carboxamide]
Emax (5-HT1A receptor): 71.4%
Emax (5-HT2A receptor [1]): 78.7%
half-life (t1/2) (in vitro [3]): 13.5 min
Emax [8]: 2.08%
half-life (t1/2) (in vitro [5]): 5.9 min
Emax (5-HT1B receptor): 95.5%
Emax (5-HT2B receptor [6]): 29.6%
half-life (t1/2) (in vitro [7]): 2.1 min

CCN(C)C(=O)[C@@H]1C=C2c3cccc4[nH]cc(c34)C[C@H]2N(CC2CCCC2)C1 [Compound 103, (6aR,9R)-7-(cyclopentylmethyl)-N-ethyl-N-methyl-4,6,6a,7,8,9-hexahydroindolo[4,3-fg]quinoline-9-carboxamide]
Emax (5-HT1A receptor): 122%
EC50 (5-HT1A receptor): 84400 nM
Emax (5-HT2A receptor [1]): 80.1%
EC50 (5-HT2A receptor [1]): 422 nM
Ki (5-HT2B receptor [2]): 11.7 nM
microsomal CLint (in vitro [3]): 121 µL/min/mg
half-life (in vitro [3]): 11.4 min
Ki (5-HT2A receptor [4]): 1.6 nM
microsomal CLint (in vitro [5]): 185 µL/min/mg
half-life (in vitro [5]): 7.5 min
EC50 (5-HT2C receptor): > 10000 nM
Emax (5-HT2C receptor): 21.7%
Emax (5-HT2B receptor [6]): 5.54%
EC50 (5-HT2B receptor [6]): > 10000 nM
microsomal CLint (in vitro [7]): 277 µL/min/mg
half-life (in vitro [7]): 5 min
